The text below walks through data of patent publication US9845330B2, “6-nitro-2,3-dihydroimidazo[2,1-b]oxazoles and a process for the preparation thereof” (priority 2013, dated 2017).

In brackets after ≈: the same amount, converted by molar mass.

The subject of assay [1] is M. tuberculosis MDR (resistant to isoniazid and rifampicin). Nature of the assay: microbe, parasite or virus in culture. The class given is cell-based. The note with it: Mycobacterium tuberculosis, 504 h, read-out: MIC M. tb MDR.
The test system of assay [2] is M. tuberculosis XDR (resistant to isoniazid, rifampicin, amikacin and moxifloxacin). Briefly: microbe, parasite or virus in culture. The class given is cell-based. The note with it: Mycobacterium tuberculosis, 504 h, read-out: MIC M. tb XDR.

In the case of `C[C@]1(COc2ccc(S(=O)(=O)Nc3ccc(OC(F)(F)F)cc3)cc2)Cn2cc([N+](=O)[O-])nc2O1` [IIB2, (R)-4-{(2-methyl-6-nitro-2,3-dihydroimidazo[2,1-b]oxazol-2-yl)methoxy}-N-(4 trifluoromethoxyphenyl)benzenesulfonamide], the MIC in assay [1] and in assay [2] was 2 µg/mL (≈ 3.89 µM) in each case.
Take `C[C@]1(COc2ccc(S(=O)(=O)Nc3ccc(C(F)(F)F)cc3)cc2)Cn2cc([N+](=O)[O-])nc2O1` [IIB3, (R)-4-{(2-methyl-6-nitro-2,3-dihydroimidazo[2,1-b]oxazol-2-yl)methoxy}-N-(4 trifluoromethylphenyl)benzenesulfonamide]: the MIC in assay [1] and in assay [2] was 2 µg/mL (≈ 4.01 µM) throughout.
As for `CN(c1ccccc1)S(=O)(=O)c1ccc(OC[C@@]2(C)Cn3cc([N+](=O)[O-])nc3O2)cc1` [IIB4, (R)—N-methyl-4-{(2-methyl-6-nitro-2,3-dihydroimidazo[2,1-b]oxazol-2-yl)methoxy}-N-phenylbenzenesulfonamide], the MIC in assay [1] and in assay [2] was 4 µg/mL (≈ 9 µM) each time.
With `Cc1ccc(N(C)S(=O)(=O)c2ccc(OC[C@@]3(C)Cn4cc([N+](=O)[O-])nc4O3)cc2)cc1` [IIB5, (R)—N-methyl-4-{(2-methyl-6-nitro-2,3-dihydroimidazo[2,1-b]oxazol-2-yl)methoxy}-N-(p-tolyl)benzenesulfonamide], the MIC in assay [1] and in assay [2] was 4 µg/mL (≈ 8.72 µM) each time.
Take `CN(c1ccc(C(F)(F)F)cc1)S(=O)(=O)c1ccc(OC[C@@]2(C)Cn3cc([N+](=O)[O-])nc3O2)cc1` [IIB6, (R)—N-methyl-4-{(2-methyl-6-nitro-2,3-dihydroimidazo[2,1-b]oxazol-2-yl)methoxy}-N-(p-trifluoromethylphenyl)benzenesulfonamide]: the MIC in assay [1] and in assay [2] was 1 µg/mL (≈ 1.95 µM) throughout.
Take `C[C@]1(COc2ccc(S(=O)(=O)N3CCN(c4ccccc4)CC3)cc2)Cn2cc([N+](=O)[O-])nc2O1` [IIC1, (R)-2-{4-(4-phenylpiperazin-1-yl)sulfonylphenoxymethyl}-2,3-dihydro-2-methyl-6-nitroimidazo[2,1-b]oxazole]: the MIC in assay [1] and in assay [2] was 1 µg/mL (≈ 2 µM) each time.
As for `C[C@]1(COc2ccc(S(=O)(=O)N3CCN(c4ccc(F)cc4)CC3)cc2)Cn2cc([N+](=O)[O-])nc2O1` [IIC2, (R)-2-{4-[4-(4-fluorophenyl)piperazin-1-yl]sulfonylphenoxymethyl}-2,3-dihydro-2-methyl-6-nitroimidazo[2,1-b]oxazole], the MIC in assay [1] and in assay [2] was 2 µg/mL (≈ 3.86 µM) in each case.
As for `C[C@]1(COc2ccc(S(=O)(=O)N3CCN(c4cccc(Cl)c4)CC3)cc2)Cn2cc([N+](=O)[O-])nc2O1` [IIC3, (R)-2-{4-[4-(3-chlorophenyl)piperazin-1-yl]sulfonylphenoxymethyl}-2,3-dihydro-2-methyl-6-nitroimidazo[2,1-b]oxazole], the MIC in assay [1] and in assay [2] was 8 µg/mL (≈ 15 µM) in each case.
With `C[C@]1(COc2ccc(S(=O)(=O)N3CCN(c4ccc(OC(F)(F)F)cc4)CC3)cc2)Cn2cc([N+](=O)[O-])nc2O1` [IIC4, (R)-2-{4-[4-(4-trifluoromethoxyphenyl)piperazin-1-yl]sulfonylphenoxymethyl}-2,3-dihydro-2-methyl-6-nitroimidazo[2,1-b]oxazole], the MIC in assay [1] and in assay [2] was 2 µg/mL (≈ 3.43 µM) in each case.
Turning to `CCOC(=O)N1CCN(S(=O)(=O)c2ccc(OC[C@@]3(C)Cn4cc([N+](=O)[O-])nc4O3)cc2)CC1` [IIC5, (R)-ethyl-{4-[4-(2-methyl-6-nitro-2,3-dihydroimidazo[2,1-b]oxazol-2yl)methoxyphenyl]sulfonyl}piperazine-1-carboxylate], the MIC in assay [1] and in assay [2] was 2 µg/mL (≈ 4.04 µM) throughout.
Turning to `C[C@]1(COc2ccc(S(=O)(=O)N3CCN(C(=O)c4ccccc4)CC3)cc2)Cn2cc([N+](=O)[O-])nc2O1` [IIC6, (R)-{4-[4-(2-methyl-6-nitro-2,3-dihydroimidazo[2,1-b]oxazol-2yl)methoxyphenyl]sulfonyl}piperazine-1-yl(phenyl)methanone], the MIC in assay [1] and in assay [2] was 2 µg/mL (≈ 3.79 µM) throughout.
In the case of `C[C@]1(COc2ccc(S(=O)(=O)N3CCCCC3)cc2)Cn2cc([N+](=O)[O-])nc2O1` [IIC7, (R)-2-{4-(piperidin-1-ylsulfonyl)phenoxymethyl}-2,3-dihydro-2-methyl-6-nitroimidazo[2,1-b]oxazole], the MIC in assay [1] and in assay [2] was 1 µg/mL (≈ 2.37 µM) throughout.
For `C[C@]1(COc2ccc(S(=O)(=O)N3CCC(c4ccccc4)CC3)cc2)Cn2cc([N+](=O)[O-])nc2O1` [IIC8, (R)-2-{4-[(4-phenylpiperidin-1-yl)sulfonyl]phenoxymethyl}-2,3-dihydro-2-methyl-6-nitroimidazo[2,1-b]oxazole], the MIC in assay [1] and in assay [2] was 0.5 µg/mL (≈ 1 µM) each time.
With `C[C@]1(COc2ccc(S(=O)(=O)N3CCCC3)cc2)Cn2cc([N+](=O)[O-])nc2O1` [IIC9, (R)-2-{4-(pyrrolidin-1-ylsulfonyl)phenoxymethyl}-2,3-dihydro-2-methyl-6-nitroimidazo[2,1-b]oxazole], the MIC in assay [1] and in assay [2] was 1 µg/mL (≈ 2.45 µM) in each case.
For `C[C@]1(COc2ccc(S(=O)(=O)N3CCOCC3)cc2)Cn2cc([N+](=O)[O-])nc2O1` [IIC10, (R)-2-{4-(morpholinsulfonyl)phenoxymethyl}-2,3-dihydro-2-methyl-6-nitroimidazo[2,1-b]oxazole], the MIC in assay [1] and in assay [2] was 0.5 µg/mL (≈ 1.18 µM) in each case.
